{"source": "patent US7842782B2", "about": "“Heparanase-derived peptides for vaccination of tumor patients” (Deutsches Krebsforschungszentrum Stiftung Des Öffentlichen …, priority 2003, dated 2010)", "key": {"[1]": {"tested_on": "peptide-specific T-cells from the bone marrow (BMTCs)", "assay": "IFN-γ Enzyme-Linked Immuno Assay (ELISpot)", "assay_type": "cell-based, human", "conditions": "for patients significantly reacted against peptide: BMTCs of 15 female breast cancer patients, insulin p34 negative control, 10 μg/ml peptide; for reaction of T cells in ELISpot: vs insulin", "procedure": "Mononuclear cells (MNC) from periphery blood (PB) and bone marrow (BM) were isolated via Ficoll gradients (Biocoll separating solution, Biochrom AG). MNC were washed two times with RPMI 1640, transferred to uncoated cell culture dishes, and grown for two hours at 37° C., 5% CO2 in x-VIVO-20 media (BioWhittaker, Walkersville, Md.) for adhesion. Adherent cells were cultivated for 7 day in x-VIVO-20 media with the addition of GM-CSF ([…]; Behringwerke, Marburg) and IL-4 (1000 U/ml; Promocell, Heidelberg). Dendritic cells (DCs) were magnetically isolated via anti-CD-3-coated and anti-CD-19-coated magnetic beads (Dynal). Non-adherent cells were cultivated for 7 days in RPMI 1640 supplemented with 8% human AB sera (Sigma), rhuIL-2 (100 U/ml; Chiron, Ratingen) and IL-4 (60 U/ml). T cells (TCs) were purified via anti-CD-56-coated, anti-CD-19-coated and anti-CD-15-coated magnetic beads.\nThe number of peptide-specific T-cells from the bone marrow (BMTCs) of female patients is determined by the ELISpot method. For this purpose, a 96-well ELISpot plate (Millipore) is coated with anti-human-IFNγ antibodies (ELISpot Kit, Mabtech) over night at 4° C. and then one hour blocked with RPMI 5% AB sera (37° C., 5% CO2). 10^4 DCs, 10^5 TCs and 10 μg/ml peptide are cultivated on the IFN-γ-coated ELISpot plate for 40 hours (37° C., 5% CO2). Supernatants are discarded and the plate is developed via the ELISpot kit (Mabtech). IFN-γ producing cells are counted with Axioplan Mikroskop (Zeiss) by using the KS ELISpot software. For negative controls, HIV or insulin peptides are used. Each group is determined in triplicate. Positive results are measured via the so-called T-test (p<0.05)."}, "CD8-positive T cells": {"tested_on": "CD8-positive T cells", "assay": "Tetramer staining (HLA-A2/peptide tetramers, flow cytometry)", "assay_type": "cell-based, human", "conditions": "2 examined patients (text summary of Table 4)", "procedure": "10^6 of each BM-MNC and PB-MNC are blocked with 5% endobulin (immunoglobulin G), incubated with tetramers on ice for 45 min and then stained with CD8-FITC (Becton Dickinson). Dead cells are identified by propidium iodide. The number of T-cells which are double positive for CD8 and tetramer are determined by flow cytometry."}}}
{"substance": "L L L G P L G P L (LLLGPLGPL) [Hpa p16]", "values": [{"measurement": "patients significantly reacted against peptide", "setting": "[1]", "result": 33, "unit": "%"}, {"measurement": "reaction of T cells in ELISpot", "setting": "[1]; MaCa patient 503", "result": "x (x = positive (p value < 0.05) reaction of T cells in ELISpot)"}, {"measurement": "reaction of T cells in ELISpot", "setting": "[1]; MaCa patient 579", "result": "x (x = positive (p value < 0.05) reaction of T cells in ELISpot)"}, {"measurement": "reaction of T cells in ELISpot", "setting": "[1]; MaCa patient 590", "result": "x (x = positive (p value < 0.05) reaction of T cells in ELISpot)"}, {"measurement": "reaction of T cells in ELISpot", "setting": "[1]; MaCa patient 639", "result": "x (x = positive (p value < 0.05) reaction of T cells in ELISpot)"}, {"measurement": "reaction of T cells in ELISpot", "setting": "[1]; MaCa patient 790", "result": "x (x = positive (p value < 0.05) reaction of T cells in ELISpot)"}, {"measurement": "reaction of T cells in ELISpot", "setting": "[1]; MaCa patient 923", "result": "x (x = positive (p value < 0.05) reaction of T cells in ELISpot)"}, {"measurement": "HLA-A2peptide staining of CD8-positive T cells", "setting": "CD8-positive T cells", "result": "enriched fractions of CD8-positive T cells"}]}
{"substance": "A L P P P L M L L (ALPPPLMLL) [Hpa p8]", "values": [{"measurement": "patients significantly reacted against peptide", "setting": "[1]", "result": 20, "unit": "%"}, {"measurement": "reaction of T cells in ELISpot", "setting": "[1]; MaCa patient 503", "result": "x (x = positive (p value < 0.05) reaction of T cells in ELISpot)"}, {"measurement": "reaction of T cells in ELISpot", "setting": "[1]; MaCa patient 639", "result": "x (x = positive (p value < 0.05) reaction of T cells in ELISpot)"}, {"measurement": "reaction of T cells in ELISpot", "setting": "[1]; MaCa patient 704", "result": "x (x = positive (p value < 0.05) reaction of T cells in ELISpot)"}, {"measurement": "HLA-A2peptide staining of CD8-positive T cells", "setting": "CD8-positive T cells", "result": "enriched fractions of CD8-positive T cells"}]}
{"substance": "D L I F G L N A L (DLIFGLNAL) [Hpa p183]", "values": [{"measurement": "patients significantly reacted against peptide", "setting": "[1]", "result": 40, "unit": "%"}, {"measurement": "reaction of T cells in ELISpot", "setting": "[1]; MaCa patient 503", "result": "x (x = positive (p value < 0.05) reaction of T cells in ELISpot)"}, {"measurement": "reaction of T cells in ELISpot", "setting": "[1]; MaCa patient 579", "result": "x (x = positive (p value < 0.05) reaction of T cells in ELISpot)"}, {"measurement": "reaction of T cells in ELISpot", "setting": "[1]; MaCa patient 581", "result": "x (x = positive (p value < 0.05) reaction of T cells in ELISpot)"}, {"measurement": "reaction of T cells in ELISpot", "setting": "[1]; MaCa patient 639", "result": "x (x = positive (p value < 0.05) reaction of T cells in ELISpot)"}, {"measurement": "reaction of T cells in ELISpot", "setting": "[1]; MaCa patient 753", "result": "x (x = positive (p value < 0.05) reaction of T cells in ELISpot)"}, {"measurement": "reaction of T cells in ELISpot", "setting": "[1]; MaCa patient 790", "result": "x (x = positive (p value < 0.05) reaction of T cells in ELISpot)"}]}
